The values that follow come from PMC3928314, “Identification and Characterization of Sebaceous Gland Atrophy-Sparing DGAT1 Inhibitors” (PLoS ONE, 2014).

SMILES strings stand for the structures. Several values for one entry are separate records, joined by “and”; a condition that tells them apart may be missing. Identical values can stand only once. Entries after “also recorded” stand apart in the source; their conditions may differ. Like-named read-outs stand apart in the source and are kept apart here.

Data set [1] in a line: Plasma compound concentration after 14 days oral dosing. The data set is classed as in vivo, mouse. Particulars: DIO mice, oral 30 mg/kg or dose indicated (Cpd1 3 mg/kg), trough. The protocol: (§1) Experiments were performed in male diet induced obese C57BL/6 mice (Taconic Farms, Germantown, NY) that were fed high-fat diet (D12492: 60% kcal from fat; Research Diets) in a 12 hr light/12 hr dark cycle. Animal protocols used in these studies were approved by the Merck Research Laboratories Institutional Animal Care and Use Committee (Rahway, NJ). Mice were acclimated to nonspecific stress for 7 days before the onset of the chronic dosing studies where they were dosed orally with vehicle (0.5% methylcellulose) or compounds at 30 mg/kg, or at doses indicated, for 14 days.
Concentrations of compounds in plasma were determined by LC-MS/MS following protein precipitation. To 100 µL of plasma sample, 20 µL of an acetonitrile solution of the internal standard (2,500 ng/ml), was added. This step was followed by protein precipitation with 300 µL of acetonitrile. Samples expected to contain analyte concentrations exceeding the upper limits of the calibration curves were diluted with control plasma. Sample mixtures were vortex-mixed for 15 minutes. After spinning in a centrifuge for 15 minutes at 1,000× g (at 10°C), the supernatants were transferred by a Tomtec Quadra 96 Model 320 (Hamden, CT) to Empore 96 filter plates (Fisher Scientific, Springfield, NJ), and the resulting filtrates collected. These filtrates were dried at 25°C under a stream of nitrogen gas, on a Zymark TurboVap 96 (Hopkinton, MA). The residues were reconstituted with 100 µL of a 8∶2, v/v, mixture of mobile phases A (20 mM aqueous ammonium acetate containing 0.01% formic acid), and B (80∶20, v/v, acetonitrile:methanol), vortex-mixed, spun in a centrifuge at 1,000× g (at 10°C), then analyzed by LC-MS/MS.
The LC-MS/MS system comprised of a Leap Technologies HTS-PAL autosampler (Carrboro, North Carolina), two Perkin Elmer Series 200 Micro Pumps (Norwalk, CT), an in-line pre-column filter, a Type W 6-port Valco switching valve (Vici, Houston, TX), and a Sciex API 365 mass spectrometer (Toronto, Canada). Chromatographic separation of the analytes was achieved by RP-HPLC.
Data were acquired and processed by Sciex Analyst version 1.1 software. Peak area ratios of analyte to internal standard were plotted as a function of the nominal concentrations of the analyte. A line of best fit was generated from the curve points by linear regression with a weighting factor of 1/x2. The equation of this line was then used to calculate the plasma […] in samples.

A short description of data set [2]: Measured logD by high-throughput HPLC. The data set is classed as physicochemical. Particulars: reversed-phase HPLC, Poroshell 120 EC-C18 column; HT HPLC, pH 7.0; read-out: mlogD (measured logD). On the procedure: LogD was measured by high-throughput (HT) HPLC at pH 7.0. The chromatographic system consisted of an Agilent 1200 HPLC system composed of a G1379B degasser, G1312B binary pump, G1367C well-plate autosampler, G1316B thermostatted column compartment, G1315C diode-array UV-vis detector, and ChemStation software, all from Agilent Technologies, USA. The separations were carried out on a Poroshell 120 EC-C18, 30 mm×3.0 mm I.D., 2.7 µm, (Agilent Technologies, USA). The mobile phase consisted of phosphate buffered saline at pH 7 (mobile phase A) and acetonitrile (mobile phase B). The column oven temperature was set to 30°C. The HPLC analysis began with an isocratic step of 0.2 minutes at 5% B at 1.5 ml/min, followed by a gradient from 5% to 98% B in 1.0 minute at 1.5 ml/min. A second isocratic step of 0.2 minutes at 98% B with a changing flow rate from 1.5 to 2.0 ml/min was then followed by a gradient from 98 to 5% B in 0.1 minutes with the flow rate changing from 2.0 to 1.5 ml/min. The equilibration time between injections is 0.2 minutes at 5% B. The injection volume is 5 µL and the spectrophotometric detection was set to 215, 238 and 254 nm.
A 10 mM DMSO stock solution of compound was delivered for analysis. A 100 µM standard solution was generated by diluting 10 µL of the 10 mM stock solution with 990 µL of diluent (10% DMSO/10% MeCN/80% MeOH, v/v/v). The chromatographic system was calibrated with a set of standards with published shake-flask logD values. Linear regression was used to determine the calibration line relating the retention time to logD for the calibration standards. This line was then used to determine the HT HPLC logD7.0 value of compound from the measured retention time by the HPLC/DAD analysis of the 100 µM standard solution.

Data set [3] in a line: Unbound fraction (Fu) in plasma by equilibrium dialysis. The data set is classed as in vitro ADME. Particulars: pH 7.4, mouse plasma, equilibrium dialysis 4 hr 37°C. On the procedure:
Plasma protein binding was determined by equilibrium dialysis with an incubation period of 4 hr at 37°C. The dialysis membrane (10-12K MWCO, HTDialysis, LLC) was hydrated and the dialysis apparatus (HTDialysis, LLC) assembled according to the manufacturer's directions. A 150 µL aliquot of mouse plasma containing compound (5 µM) was added to one side of the dialysis membrane. A 150 µL aliquot of phosphate buffered saline (pH 7.4) was added to the opposite side. The plate was then sealed and placed in a shaking incubator set to maintain a temperature of 37°C and constant shaking rate of 60 rpm for 4 hr. At the end of the incubation period, 50 µL aliquots of plasma and buffer were removed and analyzed by LC-MS/MS. Percent unbound was determined as the amount of compound in buffer (post incubation) divided by amount of compound in plasma (post incubation) x100.
A general note: In equilibrium dialysis only unbound substance equilibrates across the membrane.

Data set [4] relates to male diet induced obese C57BL/6 mice. The data set can be described thus: Skin histology, sebaceous gland atrophy in DIO mice. It counts as in vivo, mouse. Particulars: for Sebaceous gland atrophy in skin, in words (skin-positive / skin-negative): 14 days of treatment; for Sebaceous gland size (area), Geometric Mean: dorsal skin biopsies, Cpd1 3 mg/kg, Cpd2 and Cpd3 30 mg/kg, n 10; for Sebaceous gland size (area), Geometric Mean / Scoring (histological adverse effect score, sebaceous gland atrophy): 14 days; for Scoring (histological adverse effect score, sebaceous gland atrophy): oral 30 mg/kg or dose indicated (Cpd1 3 mg/kg), dorsal skin. The protocol:
as §1
Skin samples from DIO mice treated with DGAT1 inhibitors for 14 days were collected from the dorsal and/or ventral surface and immediately fixed in 10% buffered formalin for 24 hr at room temperature and embedded in paraffin. Paraffin specimens were sectioned at 5 µm and stained with hematoxylin and eosin, and were evaluated blindly with light microscopy. […] One slide/location with at least 50 sebaceous glands was used for scoring purposes. Digital images were captured using a 20× objective and the ScanScope XT slide scanner system (Aperio Technologies, Vista, CA) and managed using Spectrum (Aperio). The size of the sebaceous glands were measured using ImageScope of Aperio system by the method previously described.

For a further data set, the target named is T1, mDGAT1 (Mus musculus, UniProt Q9Z2A7).
T1 construct: made in house; host or cells: Pichia (membrane preparations)
T1 sequence (Q9Z2A7 1-498): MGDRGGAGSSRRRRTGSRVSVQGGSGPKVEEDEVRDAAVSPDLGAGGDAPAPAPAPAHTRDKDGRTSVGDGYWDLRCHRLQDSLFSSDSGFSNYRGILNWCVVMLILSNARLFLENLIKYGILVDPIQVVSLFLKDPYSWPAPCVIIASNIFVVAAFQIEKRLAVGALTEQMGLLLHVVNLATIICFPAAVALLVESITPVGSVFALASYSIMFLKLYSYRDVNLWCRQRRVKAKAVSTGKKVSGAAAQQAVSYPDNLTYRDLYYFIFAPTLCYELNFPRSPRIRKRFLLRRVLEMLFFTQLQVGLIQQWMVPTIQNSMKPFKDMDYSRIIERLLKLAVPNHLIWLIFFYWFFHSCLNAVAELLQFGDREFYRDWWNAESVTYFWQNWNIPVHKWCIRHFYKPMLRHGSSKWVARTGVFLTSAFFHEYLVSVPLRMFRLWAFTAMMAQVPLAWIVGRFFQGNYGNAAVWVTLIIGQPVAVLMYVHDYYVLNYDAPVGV
Nature of the data set: DGAT1 enzyme assay. Particulars: in vitro potency. The data set is classed as biochemical.

Data set [5] in a line: Skin compound concentration after 14 days oral dosing. Particulars: DIO mice; for Skin (skin concentration): oral 30 mg/kg or dose indicated (Cpd1 3 mg/kg), 14 days, trough, BLQ = below detection; for Kp: male, C57BL/6, mouse, skin/plasma, 14 days oral dosing, read-out: Skin/Plasma Ratio (skin to plasma concentration ratio). The data set is classed as in vivo, mouse. The protocol: as §1
The skin tissue samples from mice were weighted and placed in 48-well plates (or tubes). […] An aliquot of 100 µL homogenized blank skin tissue samples were transferred to 96-well plates designated for standard curve and QCs. […] An aliquot of 100 µL dosed skin tissue homogenates were transferred to the 96-well plate and a 25 µL aliquot of acetonitrile:water 1∶1 was added into each well containing dosed tissue samples to make the volumes of all samples, stds, and QCs equal. Protein precipitation was used for sample extraction by the addition of 500 µL of acetonitrile crash solution, containing IS. Internal standard used was Alprazolam (Sigma Aldrich) at 100 µM in the crash solution. Samples were vortexed for 30 seconds and then centrifuged at 4000 rpm for 5 min. The supernatant was transferred to a separate plate.
A Thermo Scientific-Cohesive LX-2 system consisting of a CTC Analytics autosampler, Flux Instruments AG pumps, and a valve module, controlled by Aria software was used. A Sciex API-4000 mass spectrometer (Toronto, Canada) was the detector using Analyst 1.4.2 software. The aqueous mobile phase (A) was water with 0.1% formic acid and the organic mobile phase (B) was acetonitrile with 0.1% formic acid. A gradient chromatographic profile was used. […] Then over 90 seconds, the chromatic conditions were ramped to 5% A and 95% B. This was held for 25 seconds when the conditions were changed back to original 95% A and 5% B and held for 50 seconds. […] A turbo ionspray interface was used in positive ion mode for detection of analytes. Multiple reaction monitoring (MRM) was used to measure the analyte response. The peak area ratio of analyte to internal standard for nominal concentrations was used to make a linear regression line with a 1/x2 weighting factor. The line's equation was used to determine the concentration in the unknown samples.

For a further data set, the system named is rats. Nature of the data set: Longer exposure in rats, skin adverse effects. It counts as in vivo, rat. Conditions: up to 300 mg/kg for 4 weeks, data not shown.

In general, fraction unbound refers to the share of the substance not bound to proteins or other matrix. Lower therefore signals extensive binding. As a reminder, the IC50 is the concentration needed to halve the response being measured.

As to `O=C(Nc1ccc([C@H]2CC[C@H](C(=O)O)CC2)cc1F)c1nnc(Nc2ccc(F)c(F)c2)o1` [Cpd3], the “Plasma (plasma concentration)” value in data set [1] worked out at 1.38 µM. In addition, the chromatographic logD in data set [2] turned out to be 1.73. In data set [3], the fraction unbound at 4 h, 5 µM is 0.063. Further, in data set [4], the “Sebaceous gland atrophy in skin, in words (skin-positive / skin-negative)” value was “induce either “minimal to mild” or “moderate to marked” skin sebaceous gland atrophy”; the “Sebaceous gland size (area), Geometric Mean” value (from here on “Sebaceous gland size (area)”) came to 1562; the “Scoring (histological adverse effect score, sebaceous gland atrophy)” value is given as “minimal to mild”. For the same molecule, at mDGAT1, inhibition was half-maximal at 0.011 µM (IC50). For the same molecule, it took 0.011 µM to reach half-maximal inhibition against mDGAT1 (same values in µM) (IC50). In data set [5], the “Skin (skin concentration)” value stood at 0.135 µM and the Kp was 0.098.

On to `Nc1ncnc2c1C(=O)N(c1ccc([C@H]3CC[C@H](CC(=O)O)CC3)cc1)CCO2` [Cpd1], for which the “Plasma (plasma concentration)” value in data set [1] was 0.194 µM. In data set [2], the chromatographic logD is 0.35. In data set [4], the “Sebaceous gland atrophy in skin, in words (skin-positive / skin-negative)” value was “lack of skin AEs; also recorded: appeared normal; also recorded: Skin-Negative”; the “Sebaceous gland size (area)” value was found to be 1805; the “Scoring (histological adverse effect score, sebaceous gland atrophy)” value is listed as “not remarkable”. Besides, in data set [5], the “Skin (skin concentration)” value is 0.0621 µM and the Kp turned out to be 0.32. Moreover, in the data set with rats, the “Adverse effects in skin” value is “no adverse effects in skin”.

Regarding `CC(C)(C)OC(=O)NC1(C(=O)N[C@@H]2CC(=O)c3ccccc3N(Cc3cc(C(F)(F)F)cc(C(F)(F)F)c3)C2=O)CC1` [Cpd2], the “Plasma (plasma concentration)” value in data set [1] was 0.124 µM and 0.106 µM and 0.163 µM. In addition, the chromatographic logD in data set [2] turned out to be 4.04. In addition, the fraction unbound at 4 h, 5 µM in data set [3] is 0.01. For the same molecule, in data set [4], the “Sebaceous gland atrophy in skin, in words (skin-positive / skin-negative)” value is “induce either “minimal to mild” or “moderate to marked” skin sebaceous gland atrophy; also recorded: Skin-Positive”; the “Sebaceous gland size (area)” value was 880; the “Scoring (histological adverse effect score, sebaceous gland atrophy)” value is listed as “moderate to marked”. Moreover, the “Skin (skin concentration)” value in data set [5] was 2.16 µM and 1.94 µM and 2.25 µM. In addition, the Kp in data set [5] (po) is 17.5.

Take `CC(C)(O)C[C@H]1CC[C@H](c2ccc(N3CCOc4ncnc(N)c4C3=O)cc2)CC1` [Cpd22]: the “Plasma (plasma concentration)” value in data set [1] is 51.4 µM. The chromatographic logD in data set [2] was found to be 2.15. Besides, the unbound share (fraction unbound) at 4 h, 5 µM in data set [3] was 0.112. Also, in data set [4], the “Sebaceous gland atrophy in skin, in words (skin-positive / skin-negative)” value is “induce either “minimal to mild” or “moderate to marked” skin sebaceous gland atrophy” and the “Scoring (histological adverse effect score, sebaceous gland atrophy)” value is “moderate to marked”. In addition, the “Skin (skin concentration)” value in data set [5] was “BLQ”.
